This note sets out measurements from patent publication US11679097B2, “Combination product containing limonoid compound and biguanide compound” (ZHEJIANG YANGSHENGTANG INSTITUTE OF NATURAL MEDICATION CO., …, priority 2017, dated 2023).

For the test, the system named is STZ mice. The experiment in a line: Blood glucose in mouse pancreatic islet β-cell injury model (Example 3). Format: in vivo. The conditions noted are these: STZ ICR mice; single administration 0.1 g/kg per day by gavage, two weeks; 1 h after last administration. The source says:
Effects of a Limonoid Compound, Metformin or a Combination Thereof on Blood Glucose in a Mouse Pancreatic Islet β-Cell Injury Model In this example, a mouse pancreatic islet β-cell injury model was established by modeling ICR mice with streptozotocin (STZ) (referred to the prior art literature: Li Nan et al., Protective effect of pine pollen on kidney damage in diabetic nephropathy mice, Science and Technology Review, 2014, 32 (4/5): 95-99), and used to complete the evaluation of hypoglycemic effect in animals (this model could simulate pancreatic islet β-cell damage state of type I and type II diabetics). […] Conditions of experimental feeding: ICR mice (20±2 g), aged 6 weeks, purchased from Zhejiang Academy of Medical Sciences, and subjected to experimental feeding after 7 days of preliminary feeding. […] The experimental feed was mouse growth-stable feed (GB […]), and the daily feeding and management of the animals were under the responsibility of the animal security department, which provided the animals with sufficient padding and fresh drinking water daily. Experimental grouping: 15 male mice were randomly selected as the normal control group. […] Gavage doses: the gavage dose was 0.1 g/kg per day for the […] group, the gavage dose was 0.1 g/kg per day for the […] group, the gavage dose was 0.1 g/kg per day for the […]-glucopyranoside group, the gavage dose of metformin was 0.1 g/kg per day for the metformin group, […] dose of 0.05 g/kg and metformin at a dose of 0.05 g/kg were simultaneously gavaged per day for the […]/metformin combination group, […] dose of 0.05 g/kg and metformin at a dose of 0.05 g/kg were simultaneously gavaged per day for the […]/metformin combination group, […]-glucopyranoside at a dose of 0.05 g/kg and metformin at a dose of 0.05 g/kg were simultaneously gavaged per day for the […]-glucopyranoside/metformin combination group, the gavage volume was 10 mL/kg, and the normal group and the model group were administrated with 10 mL/kg of distilled water. […] SPSS 16.0 software was used for statistical analysis. The data were expressed as mean and standard deviation. The data before and after were analyzed by t-test, and P<0.05 was considered statistically significant.

With `CN(C)C(=N)NC(=N)N` [Metformin, N,N-dimethylimidodicarbonimidic diamide, reference compound], the Blood glucose value turned out to be 17.2 ± 3.9 mmol/L.
